Data published in patent US20170107203A1, “HETEROCYCLIC INHIBITORS OF THE SODIUM CHANNEL” (EPIRUS BIOPHARMACEUTICALS, INC., priority 2014, published 2017).

Experiments:
human Nav1.7 = target: T1, human Nav1.7 (Homo sapiens, UniProt Q15858); test: Assessment of Nav1.7 activity on PatchXpress (voltage dependence / slow inactivation parameters); assay type: cell-based; conditions: compound at 10 μM, relative to 0.2% DMSO vehicle control; for hNav1.7: Reduction in current at 20 mV (normalized data) Delta Ratio: before/after 30 sec conditioning pulse at 20 mV; for hNav1.7: Shift in voltage dependence of inactivation (mV) Delta Vhalf: PatchXpress
T1 construct: expressed in transfected cells
In short: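 HEK293F cells stably co-expressing hNav1.7 and β1 were recorded by automated patch clamp in TEA-based external solution (50 mM NaCl, pH 7.4) with CsF internal solution (pH 7.2). A variable conditioning prepulse inactivated channels, followed by a brief hyperpolarizing step and a depolarizing test pulse. Compounds at 10 μM were compared with 0.2% DMSO vehicle across four parameters.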

hNav1.7 [1] = target: T2, hNav1.7 (Homo sapiens, UniProt Q15858); test: Nav1.7 potency, Patchliner automated patch clamp; assay type: cell-based; conditions: automated patchclamp
T2 construct: expressed in transfected cells
Description: (§1) The generation of a HEK 293F cell line stably expressing human Nav1.7/Navp1 was achieved by co-transfecting human SCN9A and human SCN1B cDNAs, subcloned into plasmid vectors, utilizing standard transfection techniques. Clones were selected using appropriate selection agents (0.3 mg/mL Zeocin and 0.8 mg/mL Geneticin) and maintained in Dulbecco's Modified Eagle medium, 10% fetal bovine serum, 1% non-essential amino acids to ˜80% confluence at 37° C. in a humidified incubator with 95% atmosphere and 5% CO2.
(§2) In some cases, the potency of compounds was measured using either the Patchliner automated patch clamp platform (Nanion) or manual patch clamp techniques. Both approaches allowed the compounds to be characterized based upon the ability of a compound to modulate use- and/or state-dependence. The potency data is tabulated in Table 3 and is represented by eight data fields. The first four fields represent potency data measured with the Patchliner automated platform under varying use- and state-dependent electrophysiology protocols similar to the Patch express protocols detailed above. The first data column describes the potency of compounds when the Nav1.7 channel is being repetitively activated at a 7 Hz hyperpolarization frequency (Table 3: hNav1.7: IC50 of inward current block at 7 Hz, Automated patchclamp). The second data column represents the potency at which 50% of the initial hyperpolarization pulse is inhibited by the compounds (Table 3: hNav1.7: IC50 of P1 block, Automated patchclamp). The third data column details the potency of compounds in their ability to block 50% of Nav1.7 channels when these channels are induced into the slow inactivated state (Table 3: hNav1.7: IC50 of slow inactivation block, Automated patchclamp). […] The next three data fields describe the data generated from manual patchclamp electrophysiology measurements using similar methods to those employed for automated patchclamp studies. […] The last column characterizes the state-dependence of compound inhibition. Compounds that maintain the greatest potency for the slow inactivated state over fast inactivated or tonic inhibition at 0.25 Hz are characterized as “state dependent, blocker of slow inactivation”.

hNav1.7 [2] = target: T2, hNav1.7; test: Nav1.7 potency, manual patch clamp; assay type: cell-based; conditions: manual patchclamp
Description: as §1, §2

male Sprague-Dawley rat = test: Formalin test in rats (automated flinch detection); assay type: in vivo; conditions: 100 mg/kg SC 1 hour prior to formalin
Description: The formalin test in rats was performed as previously described (McNamara, 2007. Proc. Natl. Acad. Sci., vol 104, page 13525) using an automated flinch-detecting system (T. Yaksh, University of California at San Diego, La Jolla, Calif.). On the day of testing, a small metal band (0.5 g) was loosely placed around the right hind paw of a male Sprague-Dawley rat (average weight, ˜250 g). The rats were allowed to acclimate to a Plexiglas chamber for at least 30 min before testing. Formalin was then injected (50 μl of 2.5% formalin, diluted in saline) into the dorsal surface of the right hind paw of the rat, and the animal was put into a chamber of the automated formalin apparatus where movement of the formalin-injected paw was recorded. The number of paw flinches per minute was tallied for the next 60 minutes. The time interval phases were defined as follows: Phase I (0-9 mins), Phase II (10-60 mins), Phase IIA (10-40 mins), and Phase IIB (41-60 mins). The following compounds were administered 1 hour prior to formalin administration. Compound 52 from Table 1 was administered by oral gavage in 4% DMSO, 10% Solutol, 86% H2O. Gabapentin was administered subcutaneously in 0.9% NaCl (aq).

[3] = slow inactivated state, read-out: Nav1.7 IC50 SLOW INACTIVATION BLOCK (nM) (Automated Patchclamp)
[4] = slow inactivated state, read-out: Nav1.7 IC50 SLOW INACTIVATION BLOCK (nM) (Manual Patchclamp)

T1 sequence (Q15858 whole entry): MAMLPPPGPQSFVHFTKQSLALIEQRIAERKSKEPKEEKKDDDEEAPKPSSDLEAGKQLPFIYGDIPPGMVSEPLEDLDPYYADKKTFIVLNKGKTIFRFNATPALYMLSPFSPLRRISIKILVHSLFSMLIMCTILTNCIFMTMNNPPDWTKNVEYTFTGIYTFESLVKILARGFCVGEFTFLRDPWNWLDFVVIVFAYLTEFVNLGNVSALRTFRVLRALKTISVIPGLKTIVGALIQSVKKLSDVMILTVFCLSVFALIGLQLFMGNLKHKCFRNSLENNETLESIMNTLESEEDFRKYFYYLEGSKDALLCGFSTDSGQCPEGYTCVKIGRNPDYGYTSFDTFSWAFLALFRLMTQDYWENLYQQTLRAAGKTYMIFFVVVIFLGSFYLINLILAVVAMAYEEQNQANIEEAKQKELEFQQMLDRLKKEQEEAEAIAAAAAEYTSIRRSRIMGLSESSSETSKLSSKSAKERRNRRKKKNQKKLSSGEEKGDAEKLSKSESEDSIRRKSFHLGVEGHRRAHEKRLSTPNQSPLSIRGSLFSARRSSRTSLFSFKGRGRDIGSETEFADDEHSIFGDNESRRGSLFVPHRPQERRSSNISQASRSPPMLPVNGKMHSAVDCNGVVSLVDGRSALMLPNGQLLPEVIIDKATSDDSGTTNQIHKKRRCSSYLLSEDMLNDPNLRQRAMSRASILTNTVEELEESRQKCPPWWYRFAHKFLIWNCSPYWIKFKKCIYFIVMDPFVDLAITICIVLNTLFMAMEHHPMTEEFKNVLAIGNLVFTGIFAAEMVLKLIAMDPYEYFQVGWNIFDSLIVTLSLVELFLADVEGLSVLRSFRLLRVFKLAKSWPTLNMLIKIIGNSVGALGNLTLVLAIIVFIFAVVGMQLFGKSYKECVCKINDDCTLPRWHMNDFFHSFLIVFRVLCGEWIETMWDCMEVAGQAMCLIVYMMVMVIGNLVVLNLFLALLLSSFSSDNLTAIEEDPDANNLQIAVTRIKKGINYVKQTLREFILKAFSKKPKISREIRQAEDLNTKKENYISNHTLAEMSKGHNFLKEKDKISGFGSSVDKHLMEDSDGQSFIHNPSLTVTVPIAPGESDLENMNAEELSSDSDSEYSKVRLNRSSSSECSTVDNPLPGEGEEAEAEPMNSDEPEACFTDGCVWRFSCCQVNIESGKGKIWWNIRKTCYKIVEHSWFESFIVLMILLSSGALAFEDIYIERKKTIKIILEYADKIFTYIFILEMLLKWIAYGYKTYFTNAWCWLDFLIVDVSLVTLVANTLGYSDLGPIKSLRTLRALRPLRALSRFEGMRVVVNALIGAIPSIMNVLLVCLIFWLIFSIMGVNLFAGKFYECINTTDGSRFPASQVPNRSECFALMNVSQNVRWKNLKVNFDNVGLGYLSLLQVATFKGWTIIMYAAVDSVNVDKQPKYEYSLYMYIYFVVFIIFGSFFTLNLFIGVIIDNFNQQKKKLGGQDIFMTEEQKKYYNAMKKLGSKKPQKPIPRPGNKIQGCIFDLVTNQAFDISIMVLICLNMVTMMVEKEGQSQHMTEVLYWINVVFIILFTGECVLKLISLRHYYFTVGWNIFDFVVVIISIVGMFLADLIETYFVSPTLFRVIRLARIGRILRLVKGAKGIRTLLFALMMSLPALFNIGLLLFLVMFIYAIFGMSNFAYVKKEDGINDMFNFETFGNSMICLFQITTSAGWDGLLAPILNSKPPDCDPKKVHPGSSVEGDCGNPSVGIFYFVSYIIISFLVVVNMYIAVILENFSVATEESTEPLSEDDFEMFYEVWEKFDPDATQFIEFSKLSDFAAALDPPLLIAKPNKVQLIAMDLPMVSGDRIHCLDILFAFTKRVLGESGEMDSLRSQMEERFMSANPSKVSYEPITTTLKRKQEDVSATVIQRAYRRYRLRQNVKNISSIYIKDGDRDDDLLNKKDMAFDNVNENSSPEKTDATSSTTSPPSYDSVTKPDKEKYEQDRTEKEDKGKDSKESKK
T1 sequence (Q07699 19-218 partner): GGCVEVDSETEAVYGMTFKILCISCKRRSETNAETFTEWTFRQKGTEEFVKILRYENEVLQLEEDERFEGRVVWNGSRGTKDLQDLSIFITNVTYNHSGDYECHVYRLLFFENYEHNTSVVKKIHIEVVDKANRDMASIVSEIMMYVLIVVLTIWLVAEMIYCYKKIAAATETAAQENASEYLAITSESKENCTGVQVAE
T2 sequence (Q15858 whole entry): as the sequence (Q15858 whole entry) above
T2 sequence (Q07699 19-218 partner): as the sequence (Q07699 19-218 partner) above

Compound	hNav1.7: Reduction in current at 20 mV (normalized data) Delta Ratio (human Nav1.7)	hNav1.7: Voltage dependence of activation (mV) VDEP (human Nav1.7) [mV]	hNav1.7: Voltage dependence of fast inactivation (mV) VDEP (human Nav1.7) [mV]	hNav1.7: Shift in voltage dependence of inactivation (mV) Delta Vhalf (human Nav1.7) [mV]	IC50 (hNav1.7 [1]; 0.25 Hz, read-out: Nav1.7 IC50 INWARD CURRENT BLOCK (nM) (0.25 Hz, Automated Patchclamp))	IC50 (hNav1.7 [1]; 7 Hz, read-out: Nav1.7 IC50 INWARD CURRENT BLOCK (nM) (7 Hz, Automated Patchclamp))	IC50 (hNav1.7 [1]; [3]) [nM]	IC50 (hNav1.7 [2]; 7 Hz, read-out: Nav1.7 IC50 INWARD CURRENT BLOCK (nM) (7 Hz, Manual Patchclamp))	IC50 (hNav1.7 [2]; [4]) [nM]	IC50 (hNav1.7 [1]; initial pulse (P1), read-out: Nav1.7 IC50 P1 BLOCK (nM) (Automated Patchclamp))	Phase 1 (paw flinches) (male Sprague-Dawley rat; Phase I (0-9 mins))	Total Phase 2 (paw flinches) (male Sprague-Dawley rat; Phase II (10-60 mins))	Phase 2a (paw flinches) (male Sprague-Dawley rat; Phase IIA (10-40 mins))	Phase 2b (paw flinches) (male Sprague-Dawley rat; Phase IIB (41-60 mins))
CN[C@H](CC(C)C)C(=O)NCCOc1cc(F)cc(C(F)(F)F)c1 [Compound 16, (R)-N-(2-(3-fluoro-5-(trifluoromethyl)phenoxy)ethyl)-4-methyl-2-(methylamino)pentanamide]	−0.11	−2.80	−2.60	−14.70	15000	9620	8120	23200	3500	–	–	–	–	–
CC(C)C[C@@H](N)C(=O)NC(COc1cc(C(F)(F)F)cc(C(F)(F)F)c1)c1ccccc1 (stereo partly drawn) [Compound 38, (2R)-2-amino-N-(2-(3,5-bis(trifluoromethyl)phenoxy)-1-phenylethyl)-4-methylpentanamide]	−0.34	−11.5	−15.3	−33.7	–	–	5320	–	436	10300	–	–	–	–
N[C@@H](c1ccc(Cl)cc1)c1nc2cc(C(F)(F)F)cc(C(F)(F)F)c2[nH]1 [Compound 54, (S)-(4,6-bis(trifluoromethyl)-1H-benzo[d]imidazol-2-yl)(4-chlorophenyl)methanamine]	−0.26	−10	−8.6	−27.4	–	–	2890	–	312	–	–	–	–	–
NCC1(CC(=O)O)CCCCC1 [Gabapentin]	–	–	–	–	–	–	–	–	–	–	320 ± 58	562 ± 213	486 ± 202	77 ± 47
